Data as given in PubChem BioAssay (NCI).
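48-hour exposure; five concentrations; linearly interpolated endpoints. TGI denotes the concentration required for complete inhibition of growth.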 Calls of active or inactive are those of the source. No stated cut-off is given here; in the data, active means GI50 below about 0.43 µM; inactive means the rest.

Experiments:
Assay in all cases: NCI tumour cell line growth inhibition, 48 h
[1] = system: A498 renal
[2] = system: A549 NSCLC
[3] = system: ACHN renal
[4] = system: CAKI-1 renal
[5] = system: CCRF-CEM leukemia
[6] = system: COLO 205 colon
[7] = system: DLD-1 colon
[8] = system: DMS 114 small cell lung
[9] = system: DMS 273 small cell lung
[10] = system: EKVX NSCLC
[11] = system: HCC-2998 colon
[12] = system: HCT-116 colon
[13] = system: HCT-15 colon
[14] = system: HL-60(TB) leukemia
[15] = system: HOP-62 NSCLC
[16] = system: HOP-92 NSCLC
[17] = system: HT29 colon
[18] = system: IGROV1 ovarian
[19] = system: K-562 leukemia
[20] = system: KM12 colon
[21] = system: KM20L2 colon
[22] = system: LOX IMVI melanoma
[23] = system: LXFL 529 NSCLC
[24] = system: M14 melanoma
[25] = system: M19-MEL melanoma
[26] = system: MOLT-4 leukemia
[27] = system: NCI-H226 lung
[28] = system: NCI-H23 lung
[29] = system: NCI-H460 lung
[30] = system: NCI-H522 lung
[31] = system: OVCAR-4 ovarian
[32] = system: OVCAR-5 ovarian
[33] = system: OVCAR-8 ovarian
[34] = system: RPMI-8226 leukemia
[35] = system: RXF 393 renal
[36] = system: RXF-631 renal
[37] = system: SF-268 CNS
[38] = system: SF-295 CNS
[39] = system: SF-539 CNS
[40] = system: SK-MEL-2 melanoma
[41] = system: SK-MEL-28 melanoma
[42] = system: SK-MEL-5 melanoma
[43] = system: SK-OV-3 ovarian
[44] = system: SN12C renal
[45] = system: SNB-19 CNS
[46] = system: SNB-75 CNS
[47] = system: SNB-78 CNS
[48] = system: SR leukemia
[49] = system: SW-620 colon
[50] = system: TK-10 renal
[51] = system: U251 CNS
[52] = system: UACC-257 melanoma
[53] = system: UACC-62 melanoma
[54] = system: UO-31 renal
[55] = system: XF 498 CNS
[56] = system: 786-0 renal
[57] = system: MALME-3M melanoma
[58] = system: OVCAR-3 ovarian
[59] = system: BT-549 breast
[60] = system: DU-145 prostate
[61] = system: HOP-18 NSCLC
[62] = system: HS 578T breast
[63] = system: MCF7 breast
[64] = system: MDA-MB-231 breast
[65] = system: MDA-MB-435
[66] = system: MDA-N
[67] = system: NCI/ADR-RES ovarian
[68] = system: PC-3 prostate

O=C(Nc1ccccc1)C(=O)C(C(=O)c1ccccc1F)C1OC(=O)c2ccccc21 (centres undefined)
TGI [1]: > 100 µM
TGI [2]: > 100 µM
TGI [3]: > 100 µM
TGI [4]: > 100 µM
TGI [5]: > 100 µM
TGI [6]: 43.2 µM
TGI [7]: > 100 µM
TGI [8]: 61.7 µM
TGI [9]: > 100 µM
TGI [10]: > 100 µM
TGI [11]: 57.4 µM
TGI [12]: 49.9 µM
TGI [13]: 67.3 µM
TGI [14]: 75.6 µM
TGI [15]: > 100 µM
TGI [16]: > 100 µM
TGI [17]: > 100 µM
TGI [18]: > 100 µM
TGI [19]: > 100 µM
TGI [20]: > 100 µM
TGI [21]: > 100 µM
TGI [22]: 63.2 µM
TGI [23]: > 100 µM
TGI [24]: > 100 µM
TGI [25]: > 100 µM
TGI [26]: > 100 µM
TGI [27]: 62.6 µM
TGI [28]: > 100 µM
TGI [29]: > 100 µM
TGI [30]: 61.8 µM
TGI [31]: > 100 µM
TGI [32]: > 100 µM
TGI [33]: 55 µM
TGI [34]: > 100 µM
TGI [35]: 63.2 µM
TGI [36]: > 100 µM
TGI [37]: 81 µM
TGI [38]: > 100 µM
TGI [39]: 43.2 µM
TGI [40]: 93.8 µM
TGI [41]: > 100 µM
TGI [42]: > 100 µM
TGI [43]: > 100 µM
TGI [44]: > 100 µM
TGI [45]: > 100 µM
TGI [46]: 72.2 µM
TGI [47]: > 100 µM
TGI [48]: 77.9 µM
TGI [49]: > 100 µM
TGI [50]: > 100 µM
TGI [51]: 46.9 µM
TGI [52]: > 100 µM
TGI [53]: > 100 µM
TGI [54]: > 100 µM
TGI [55]: > 100 µM

COC(=O)C1(COCc2ccccc2)CCCC2OC21 (centres undefined)
outcome [56]: inactive
outcome [2]: inactive
outcome [3]: inactive
outcome [4]: inactive
outcome [5]: inactive
outcome [6]: inactive
outcome [7]: inactive
outcome [8]: inactive
outcome [9]: inactive
outcome [10]: inactive
outcome [11]: inactive
outcome [12]: inactive
outcome [13]: inactive
outcome [14]: inactive
outcome [15]: inactive
outcome [16]: inactive
outcome [17]: inactive
outcome [18]: inactive
outcome [19]: inactive
outcome [20]: inactive
outcome [21]: inactive
outcome [22]: inactive
outcome [23]: inactive
outcome [24]: inactive
outcome [25]: inactive
outcome [57]: inactive
outcome [26]: inactive
outcome [27]: inactive
outcome [28]: inactive
outcome [29]: inactive
outcome [30]: inactive
outcome [58]: inactive
outcome [31]: inactive
outcome [32]: inactive
outcome [33]: inactive
outcome [34]: inactive
outcome [35]: inactive
outcome [36]: inactive
outcome [37]: inactive
outcome [38]: inactive
outcome [39]: inactive
outcome [40]: inactive
outcome [43]: inactive
outcome [44]: inactive
outcome [45]: inactive
outcome [46]: inactive
outcome [47]: inactive
outcome [48]: inactive
outcome [49]: inactive
outcome [51]: inactive
outcome [52]: inactive
outcome [53]: inactive
outcome [54]: inactive
outcome [55]: inactive

N#CCC(=O)N/N=C(\CCN1CCCC1)CC(c1ccccc1)c1c(O)c2ccccc2oc1=O (centres undefined)
TGI [56]: > 100 µM
TGI [1]: > 85.5 µM
TGI [2]: > 100 µM
TGI [3]: > 100 µM
TGI [59]: > 100 µM
TGI [4]: > 100 µM
TGI [5]: > 94.8 µM
TGI [6]: > 56.8 µM
TGI [7]: > 100 µM
TGI [60]: > 100 µM
TGI [10]: > 100 µM
TGI [11]: > 100 µM
TGI [12]: > 100 µM
TGI [13]: > 100 µM
TGI [14]: 59.6 µM
TGI [61]: > 100 µM
TGI [15]: > 100 µM
TGI [16]: > 100 µM
TGI [62]: > 100 µM
TGI [17]: > 100 µM
TGI [18]: > 100 µM
TGI [19]: > 100 µM
TGI [20]: > 100 µM
TGI [21]: > 100 µM
TGI [22]: > 64.7 µM
TGI [23]: > 100 µM
TGI [24]: > 100 µM
TGI [25]: > 100 µM
TGI [57]: > 100 µM
TGI [63]: 45.9 µM
TGI [64]: > 100 µM
TGI [65]: > 100 µM
TGI [66]: > 100 µM
TGI [26]: 61.5 µM
TGI [27]: > 100 µM
TGI [28]: > 100 µM
TGI [29]: > 100 µM
TGI [30]: > 100 µM
TGI [67]: > 100 µM
TGI [58]: > 100 µM
TGI [31]: > 100 µM
TGI [32]: > 100 µM
TGI [33]: > 100 µM
TGI [68]: > 100 µM
TGI [34]: > 92.8 µM
TGI [35]: > 100 µM
TGI [36]: > 100 µM
TGI [37]: > 100 µM
TGI [38]: > 100 µM
TGI [39]: > 100 µM
TGI [40]: > 100 µM
TGI [41]: > 100 µM
TGI [42]: > 100 µM
TGI [43]: > 100 µM
TGI [44]: > 100 µM
TGI [45]: > 100 µM
TGI [46]: > 100 µM
TGI [48]: 69.8 µM
TGI [49]: > 100 µM
TGI [50]: > 100 µM
TGI [51]: > 100 µM
TGI [52]: > 100 µM
TGI [53]: > 100 µM
TGI [54]: > 100 µM
TGI [55]: > 100 µM

Cc1[nH]c2ccccc2c1-c1n[nH]c(=O)c2ccccc12
TGI [56]: > 100 µM
TGI [1]: 63.5 µM
TGI [2]: > 100 µM
TGI [3]: > 100 µM
TGI [4]: > 100 µM
TGI [5]: > 100 µM
TGI [7]: > 100 µM
TGI [8]: 58.7 µM
TGI [9]: 72.9 µM
TGI [10]: > 100 µM
TGI [11]: > 100 µM
TGI [12]: 35.8 µM
TGI [13]: > 100 µM
TGI [14]: 55.6 µM
TGI [15]: 50.3 µM
TGI [17]: > 100 µM
TGI [18]: > 100 µM
TGI [19]: > 100 µM
TGI [20]: > 100 µM
TGI [21]: 92.6 µM
TGI [23]: > 100 µM
TGI [24]: > 100 µM
TGI [25]: > 100 µM
TGI [57]: 74.4 µM
TGI [26]: 81.3 µM
TGI [27]: 85.3 µM
TGI [28]: > 100 µM
TGI [29]: > 100 µM
TGI [58]: 67.3 µM
TGI [31]: > 100 µM
TGI [32]: > 100 µM
TGI [33]: > 100 µM
TGI [34]: 74.7 µM
TGI [35]: 37.1 µM
TGI [36]: 66.1 µM
TGI [38]: 91.8 µM
TGI [39]: > 100 µM
TGI [40]: > 100 µM
TGI [41]: > 100 µM
TGI [42]: 41 µM
TGI [43]: 72.1 µM
TGI [46]: 57.9 µM
TGI [47]: > 100 µM
TGI [49]: > 100 µM
TGI [50]: > 100 µM
TGI [51]: > 100 µM
TGI [52]: > 100 µM
TGI [53]: > 100 µM
TGI [54]: 61.9 µM
TGI [55]: 76.2 µM
